In US11820756B2, “Bradykinin B2 receptor antagonists” (Pharvaris Netherlands B.V., priority 2017, dated 2023):

Molecular target: T1, human bradykinin B2 receptor (hB2R) (Homo sapiens, UniProt P30411)
T1 sequence (P30411 1-391): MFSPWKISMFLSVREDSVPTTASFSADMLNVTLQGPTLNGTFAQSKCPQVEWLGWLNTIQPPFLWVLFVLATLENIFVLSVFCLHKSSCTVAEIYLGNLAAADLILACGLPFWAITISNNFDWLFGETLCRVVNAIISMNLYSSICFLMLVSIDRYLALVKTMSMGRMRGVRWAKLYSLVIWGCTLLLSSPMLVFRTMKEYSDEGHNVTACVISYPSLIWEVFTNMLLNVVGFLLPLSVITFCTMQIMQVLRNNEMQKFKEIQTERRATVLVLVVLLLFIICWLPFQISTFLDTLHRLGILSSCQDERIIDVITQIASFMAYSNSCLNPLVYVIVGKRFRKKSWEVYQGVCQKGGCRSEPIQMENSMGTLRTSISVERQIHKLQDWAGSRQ
Experiment: cell-based human bradykinin B2 receptor calcium mobilization (hB2R-CaM) assay
Settings: HTS041C cells, bradykinin at EC80, calcium mobilization; read-out: IC50-value towards human bradykinin B2 receptor (hB2R)
From the text: The following cell-based human bradykinin B2 receptor calcium mobilization (hB2R-CaM) assay was used to determine the antagonistic activity of compounds selected from the example compounds Nos. 1 to 168 towards human bradykinin B2 receptor (hB2R). The assay is defined herein as a standard in vitro B2 receptor activity assay, which can be used to determine IC50 values of the compounds according to the present invention, e. g. the compounds shown in Examples 1-11.
The antagonistic activity of compounds according to the present invention was investigated with the hB2R-CaM assay using the B2 Bradykinin Receptor Stable Cell Line HTS041C (Eurofins, St. Charles MO) and the FLIPR Calcium 6 Assay Kit (Molecular Devices, Wokingham, UK) according to the instructions of the providers. CaM assay measurements were performed with a Flexstation 3 System (Molecular Devices) which allows the precise addition of compounds (B2R antagonists) and bradykinin (B2R agonist) to the cells and adjacent continuous recording of the time-dependent CaM assay signals.
HTS041C cells were cultured in high glucose DMEM cell culture medium (Lonza) supplemented with 10% heat-inactivated FBS (PAN Biotech), 10 mM HEPES, Penicillin/Streptomycin (200 U/mL, 200 μg/mL), 1× non-essential amino acids (Lonza), and 250 μg/mL G418 (Invivogen) in cell incubator at 37° C. in a 5% CO2 atmosphere.
One day before the CaM assay experiments cells were seeded in 200 μL DMEM cell culture medium with reduced FBS (5%) and without G418 on clear bottom black 96 well plates (ThermoFisher #165305). Cell starvation was carried out by incubation (37° C., 5% CO2) of 70.000 cells/well for 24 h to 28 h. Immediately prior calcium dye-loading the medium was carefully aspirated and cells were washed with Hank's balanced salt solution (HBSS, Gibco) containing Ca^2+, Mg^2+ and 20 mM HEPES, adjusted to pH 7.4 (HBSS+). Calcium Dye Loading of the Cells:
For calcium dye-loading one FLIPR 6 assay aliquot was dissolved in 20 mL HBSS+. 150 μL of the dye loading solution was added to cell plate and incubated for 120 min at 37° C. and 5% CO2. After dye loading the cell plate was immediately transferred to the pre-warmed (37° C.) Flexstation 3 System for CaM assaying.
Freshly prepared compound (B2 receptor antagonists) dilution series (8 pt, n=2) and bradykinin (B2 receptor agonist) solution in non-binding plates (Costar) were transferred to the Flexstation System (source plate) shortly before starting the experiment. Bradykinin was added in EC80 concentration determined in n>3 preliminary experiments with 8 pt concentration response curves (n=8)). CaM assay was executed by Flexstation 3 System starting with recording of calcium-sensitive dye fluorescence in bottom-read Flex modus with ex/em=485 nm/525 nm, cut off(em)=[…]. After 20 s, 50 μL of 4-fold concentrated compound dilutions were added to the cells resulting in a final DMSO (Sigma) concentration of 0.1% in the cell plate. CaM signals were monitored for 80 s after additions for detection of potential agonistic activities. Prior to bradykinin stimulus compound- and vehicle-treated cells were incubated for 25 min at 37° C. within the Flexstation System. Then 50 μL of a 5-fold concentrated bradykinin solution (HBSS+, 0.1% DMSO) was added to trigger CaM signals (Read out: Max-Min values) which were measured for 80 s post bradykinin stimulus.
IC50 determinations were performed by 4 parameter logistic model curve fitting of the 8 pt (n=2) compound concentration response curves using XLFIT (IDBS) software.
Relative IC50 values of the test compounds were determined with the same hB2R-CaM assay as in Example 12.

Row | IC50 [µM] | Compound
1 | ≤ 0.05 | CCn1ncnc1-c1cc(C)nc2c(OCc3c(Cl)cc(F)cc3[C@H](C)NC(=O)COC(F)(F)F)cccc12 [Compound 145]
2 | ≤ 0.05 | Cc1cc(-n2cc(F)cn2)c2cccc(OCc3c(Cl)cc(F)cc3[C@H](C)NC(=O)C(C)(C)CO)c2n1 [Compound 60]
3 | 0.051 to 0.25 | Cc1cc(-n2nc(C)nc2C)c2cccc(OCc3c(Cl)cc(F)cc3[C@H](C)NC(=O)c3ccon3)c2n1 [Compound 135]
4 | ≤ 0.05 | Cc1cc(-n2cc(F)cn2)c2cccc(OCc3c(Cl)cc(F)cc3[C@H](C)N(C)C(=O)[C@H](C)O)c2n1 [Compound 2, (S)—N—((S)-1-(3-chloro-5-fluoro-2-((4-(4-fluoro-1H-pyrazol-1-yl)-2-methylquinolin-8-yloxy)methyl)phenyl)ethyl)-2-hydroxy-N-methylpropanamide]
5 | ≤ 0.05 | Cc1cc(-c2ncnn2C)c2cccc(OCc3c(Cl)cc(F)cc3[C@H](C)NC(=O)C(C)(C)O)c2n1 [Compound 64]
6 | 0.251 to 1 | Cc1cc(-n2cc(F)cn2)c2cccc(OCc3c(Cl)cc(F)cc3[C@H](C)NC(=O)[C@H](O)CN)c2n1 [Compound 3, (R)-3-amino-N—((S)-1-(3-chloro-5-fluoro-2-((4-(4-fluoro-1H-pyrazol-1-yl)-2-methylquinolin-8-yloxy)methyl)phenyl)ethyl)-2-hydroxypropanamide]
7 | 0.051 to 0.25 | COC(=O)[C@H](O)CC(=O)N[C@@H](C)c1cc(F)cc(Cl)c1COc1cccc2c(-n3cc(F)cn3)cc(C)nc12 [Compound 69]
8 | ≤ 0.05 | Cc1cc(-n2cc(F)cn2)c2cccc(OCc3c(Cl)cc(F)cc3[C@H](CO)NC(=O)COC(F)F)c2n1 [Compound 106]
9 | ≤ 0.05 | Cc1cc(-c2ncnn2C)c2cccc(OCc3c(Cl)cc(F)cc3[C@H](C)NC(=O)COCC3CC3)c2n1 [Compound 117]
10 | 0.051 to 0.25 | Cc1cc(-n2nc(C)nc2C)c2cccc(OCc3c(Cl)cc(F)cc3[C@H](C)NC(=O)c3cc(C)on3)c2n1 [Compound 136]
11 | ≤ 0.05 | Cc1cc(-c2ncnn2C)c2cccc(OCc3c(Cl)cc(F)cc3[C@H](C)NC(=O)c3cc(C)on3)c2n1 [Compound 127]
12 | ≤ 0.05 | [2H][C@@](CO)(NC(=O)COC(F)F)c1cc(F)cc(Cl)c1COc1cccc2c(-c3ncnn3C)cc(C)nc12 [Compound 11B, (R)—N-(1-Deutero-1-(3-chloro-5-fluoro-2-((2-methyl-4-(1-methyl-1H-1,2,4-triazol-5-yl)quinolin-8-yloxy)methyl)phenyl)-2-hydroxyethyl)-2-(difluoromethoxy)acetamide]
13 | ≤ 0.05 | Cc1cc(-n2ncnc2C)c2cccc(OCc3c(Cl)cc(F)cc3[C@H](C)NC(=O)c3cocn3)c2n1 [Compound 159]
14 | ≤ 0.05 | Cc1cc(-n2nc(C)nc2C)c2cccc(OCc3c(Cl)cc(F)cc3[C@H](C)NC(=O)COC(F)(F)F)c2n1 [Compound 139]
15 | ≤ 0.05 | Cc1cc(-c2ncnn2C)c2cccc(OCc3c(Cl)cc(F)cc3[C@H](C)NC(=O)[C@@H](C)F)c2n1 [Compound 204]
16 | 0.051 to 0.25 | Cc1cc(-n2cc(F)cn2)c2cccc(OCc3c(Cl)cc(F)cc3[C@H](CO)NC(=O)C(C)(C)O)c2n1 [Compound 105]
17 | ≤ 0.05 | Cc1cc(-c2ncnn2C)c2cccc(OCc3c(Cl)cc(F)cc3[C@H](C)NC(=O)c3ccon3)c2n1 [Compound 122]
18 | 0.051 to 0.25 | Cc1cc(-n2cc(F)cn2)c2cccc(OCc3c(Cl)cc(F)cc3[C@H](C)NC(=O)[C@@H]3COC(=O)N3)c2n1 [Compound 111]
19 | ≤ 0.05 | [2H][C@@](C)(NC(=O)[C@H](C)F)c1cc(F)cc(Cl)c1COc1cccc2c(-c3ncnn3C)cc(C)nc12 [Compound 213]
20 | 0.051 to 0.25 | Cc1cc(-n2cc(F)cn2)c2cccc(OCc3c(Cl)cc(F)cc3[C@H](C)NC(=O)C(F)F)c2n1 [Compound 146]
21 | ≤ 0.05 | [2H][C@@](C)(NC(=O)CC(F)F)c1cc(F)cc(Cl)c1COc1cccc2c(-n3ncnc3C)cc(C)nc12 [Compound 209]

Row | IC50 [µM] | Compound
22 | ≤ 0.05 | CCc1ncnn1-c1cc(C)nc2c(OCc3c(Cl)cc(F)cc3[C@H](C)NC(=O)c3cocn3)cccc12 [Compound 170]
23 | ≤ 0.05 | COCC(=O)N[C@@H](C)c1cc(F)cc(Cl)c1COc1cccc2c(-n3cc(F)cn3)cc(C)nc12 [Compound 12]
24 | 0.051 to 0.25 | Cc1cc(-n2nccn2)c2cccc(OCc3c(Cl)cc(F)cc3[C@H](C)NC(=O)C(C)(C)O)c2n1 [Compound 28]
25 | ≤ 0.05 | [2H][C@@](C)(NC(=O)CC(F)(F)F)c1cc(F)cc(Cl)c1COc1cccc2c(-n3ncnc3C)cc(C)nc12 [Compound 208]
26 | ≤ 0.05 | Cc1cc(-n2cc(F)cn2)c2cccc(OCc3c(Cl)cc(F)cc3[C@H](C)NC(=O)C[C@H](C)O)c2n1 [Compound 27]
27 | ≤ 0.05 | Cc1cc(-c2ncnn2C)c2cccc(OCc3c(Cl)cc(F)cc3[C@H](C)NC(=O)C3CCC(C)(C)O3)c2n1 (some centres unmarked) [Compound 118]
28 | ≤ 0.05 | COC(=O)[C@@H](O)CC(=O)N[C@@H](C)c1cc(F)cc(Cl)c1COc1cccc2c(-n3cc(F)cn3)cc(C)nc12 [Compound 70]
29 | ≤ 0.05 | Cc1cc(-n2cc(F)cn2)c2cccc(OCc3c(Cl)cc(F)cc3[C@H](C)NC(=O)COC(F)(F)F)c2n1 [Compound 121]
30 | ≤ 0.05 | Cc1cc(-n2ncnc2C)c2cccc(OCc3c(Cl)cc(F)cc3[C@H](C)NC(=O)C(C)(F)F)c2n1 [Compound 180]
31 | ≤ 0.05 | [2H]C([2H])([2H])[C@H](NC(=O)COC(F)F)c1cc(F)cc(Cl)c1COc1cccc2c(-c3ncnn3C)cc(C)nc12 [Compound 202]
32 | ≤ 0.05 | Cc1cc(-n2ncnc2C)c2cccc(OCc3c(Cl)cc(F)cc3[C@H](C)NC(=O)C(C)F)c2n1 (some centres unmarked) [Compound 193]
33 | ≤ 0.05 | CC[C@H](NC(=O)C(F)F)c1cc(F)cc(Cl)c1COc1cccc2c(-c3ncnn3C)cc(C)nc12 [Compound 148]
34 | 0.051 to 0.25 | Cc1cc(-n2cc(F)cn2)c2cccc(OCc3c(Cl)cc(F)cc3[C@H](C)NC(=O)[C@@H](O)C(C)C)c2n1 [Compound 22]
35 | ≤ 0.05 | [2H][C@@](C)(NC(=O)CC(F)(F)F)c1cc(F)cc(Cl)c1COc1cccc2c(-c3ncnn3C)cc(C)nc12 [Compound 181]
36 | 0.051 to 0.25 | Cc1cc(-n2cc(F)cn2)c2cccc(OCc3c(Cl)cc(F)cc3[C@H](C)NC(=O)c3cnoc3C)c2n1 [Compound 89]
37 | 0.051 to 0.25 | Cc1cc(-c2ncnn2C)c2cccc(OCc3c(Cl)cc(F)cc3[C@H](C)NC(=O)C3(C)CCCO3)c2n1 (some centres unmarked) [Compound 119]
38 | 0.051 to 0.25 | Cc1cc(-n2cnc(C)n2)c2cccc(OCc3c(Cl)cc(F)cc3[C@H](C)NC(=O)COC(F)F)c2n1 [Compound 10, (S)—N-(1-(3-chloro-5-fluoro-2-((2-methyl-4-(3-methyl-1H-1,2,4-triazol-1-yl)quinolin-8-yloxy)methyl)phenyl)ethyl)-2-(difluoromethoxy)acetamide]
39 | ≤ 0.05 | CC[C@H](NC(=O)COC(F)F)c1cc(F)cc(Cl)c1COc1cccc2c(-c3ncnn3C)cc(C)nc12 [Compound 131]
40 | ≤ 0.05 | Cc1cc(-c2ncnn2C)c2cccc(OCc3c(Cl)cc(F)cc3[C@H](C)NC(=O)CC(F)(F)F)c2n1 [Compound 177]
41 | ≤ 0.05 | Cc1cc(-c2ncnn2C)c2cccc(OCc3c(Cl)cc(F)cc3[C@H](C)NC(=O)c3cc(C)n(C)n3)c2n1 [Compound 129]
